The results in this text go back to ChEMBL document CHEMBL2429738, “Synthesis and biological evaluation of biotin conjugates of (±)-(4bS,8aR,10aS)-10a-ethynyl-4b,8,8-trimethyl-3,7-dioxo-3,4b,7,8,8a,9,10,10a-octahydro-phenanthrene-2,6-dicarbonitrile, an activator of the Keap1/Nrf2/ARE pathway, for the isolation of its protein targets” (Bioorg Med Chem Lett, 2013).

The target in this assay is NAD(P)H dehydrogenase [quinone] 1 (Mus musculus) (UniProt Q64669). Description: Induction of NQO1 activity in mouse Hepa1c1c7 cells assessed as concentration required to double specific enzyme activity after 48 hrs. The class given is cell-based.
NAD(P)H dehydrogenase [quinone] 1 (Mus musculus), sequence (Q64669 whole entry): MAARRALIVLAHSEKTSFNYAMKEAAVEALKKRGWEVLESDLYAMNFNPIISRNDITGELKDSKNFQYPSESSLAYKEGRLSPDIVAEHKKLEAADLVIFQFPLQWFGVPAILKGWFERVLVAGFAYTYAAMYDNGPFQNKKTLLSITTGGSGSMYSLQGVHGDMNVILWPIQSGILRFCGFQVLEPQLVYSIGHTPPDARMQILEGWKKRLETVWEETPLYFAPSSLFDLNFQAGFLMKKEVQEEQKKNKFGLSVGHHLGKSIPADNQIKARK

With `C#C[C@]12C=C(C#N)C(=O)C=C1[C@@]1(C)C=C(C#N)C(=O)C(C)(C)[C@@H]1CC2` (racemic), the CD was 1 nM.

Take `C#C[C@]12C=C(C#N)C(=O)C=C1[C@@]1(C)C=C(C#N)C(=O)[C@@](C)(CO)[C@@H]1CC2` (racemic): the CD is 2.2 nM.
